Experiment [1] deals with sema4D/CD100. In words: sema4D/CD100 cleavage in activated platelets (immunoblot with Abm30). The format is cell-based, human. The following applies: for cleavage of sema4D/CD100: platelets stimulated with 100 nM PMA at 37° C. for 30 min, 20 μM TAPI-2 preincubated for 60 min (FIG. 4A), EDTA not shown. An excerpt:
(§1) FIG. 4 represents the effect of metalloprotease inhibitors on sema4D expression. […] Sema4D was precipitated and blotted with Abm30. Ig light and heavy chains are indicated.
(§2) The observation that sema4D/CD100 cleavage occurs in washed platelets implies that the protease involved is intrinsic to the platelets and not a plasma protein. Platelets are known to contain a number of metalloproteases, including members of the MMP and ADAM families (Sheu, J. R., et al., Br J Pharmacol, 2004. 143(1): p. 193-201. Sawicki, G., et al., Nature, 1997. 386: p. 616-619. Sawicki, G., et al., Thromb. Haemost., 1998. 80: p. 836-839. Colciaghi, F., et al., Mol Med, 2002. 8(2): p. 67-74.).
(In general: In western blotting, separated proteins are transferred to a membrane and probed.)

The subject of experiment [2] is human platelets. The experiment can be described thus: ADP-induced platelet aggregation. Format: cell-based. As to the method:
FIG. 9A represents human platelets that were stimulated with a low concentration of ADP±soluble a soluble chimera of the extracellular domain of sema4D/CD100 fused to IgGκ Fc. FIG. 9B represents an immunoblot of FcCD100 that was performed under reducing and non-reducing conditions using anti-Fc.
Soluble sema4D/CD100 caused an increase in ADP-induced aggregation (FIG. 9). In this experiment, soluble sema4D/CD100 was added as a fusion protein (referred to as FcSema4D or FcCD100) in which the entire extracellular domain of sema4D/CD100 was fused to an IgG Fc domain. The protein forms a disulfide-linked homodimer capable of activating sema4D/CD100 receptors (Ishida, I., et al., Int Immunol, 2003. 15(8): p. 1027-34). FcCD100 had no effect when added on its own (not shown). […] Therefore, it appears that stimulating a receptor for sema4D/CD100 on platelets potentiates platelet responses to ADP. Additional platelet agonists (especially collagen) are going to be explored using platelet accumulation on collagen under flow as an additional endpoint.

Experiment [3] deals with T1, recombinant ADAM17 (Homo sapiens, UniProt P78536).
T1 construct: incubated with recombinant ADAM17 lacking the pro domain
T1 sequence (P78536 215-824): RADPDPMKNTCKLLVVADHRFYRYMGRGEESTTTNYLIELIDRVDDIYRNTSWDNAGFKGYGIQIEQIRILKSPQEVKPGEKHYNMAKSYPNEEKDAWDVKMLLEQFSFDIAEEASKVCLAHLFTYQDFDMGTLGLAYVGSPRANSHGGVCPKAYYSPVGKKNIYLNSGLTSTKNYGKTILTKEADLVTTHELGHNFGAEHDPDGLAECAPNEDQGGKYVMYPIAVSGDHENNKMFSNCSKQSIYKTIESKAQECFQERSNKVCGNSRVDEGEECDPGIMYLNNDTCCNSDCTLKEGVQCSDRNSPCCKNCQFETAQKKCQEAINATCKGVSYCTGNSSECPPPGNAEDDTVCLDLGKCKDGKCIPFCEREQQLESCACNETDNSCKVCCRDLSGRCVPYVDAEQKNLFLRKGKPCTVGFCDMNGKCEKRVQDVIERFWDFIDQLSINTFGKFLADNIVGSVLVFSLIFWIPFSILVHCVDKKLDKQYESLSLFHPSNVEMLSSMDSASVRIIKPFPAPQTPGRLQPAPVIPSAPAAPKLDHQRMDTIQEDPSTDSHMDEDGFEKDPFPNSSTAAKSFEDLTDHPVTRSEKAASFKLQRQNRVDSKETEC
The experiment can be described thus: Cleavage of Fc-sema4D by recombinant ADAM17. The format is biochemical. The following applies: recombinant ADAM17 lacking the pro domain (FIG. 11). How it is done:
FIG. 11 represents the cleavage of sema4D by ADAM17. Recombinant ADAM17 was incubated with Fc-sema4D in which the extracellular domain of human sema4D was joined via a linker to the N-terminus of IgG1 Fc. Two fragments were detected by amido black protein staining (left), the smaller of which (fragment #1) was also detectable with anti-Fc, as was the intact protein (middle). The N-terminal sequence of fragment #1 was determined.
The cleavage site within platelet sema4D/CD100 was determined by using the C-terminal sema4D/CD100 antibody to immunoprecipitate the 25-30 kDa fragment that includes the transmembrane domain and any remaining extracellular domain. […]
In an effort to determine whether sema4D is a direct substrate for ADAM17, a chimeric protein comprised of the extracellular domain of human sema4D fused to the N-terminus of an IgG Fc domain fragment (Ishida et al. 2003. Int Immunol 15:1027-1034) was incubated with recombinant ADAM17 lacking the pro domain (Milla et al. 1999. J Biol Chem 274:30563-30570). […] It has been determined that in platelets, as in lymphocytes, the extracellular domain of sema4D/CD100 is shed as a disulfide-linked dimer.

The test system of experiment [4] is Akt. The experiment can be described thus: Akt phosphorylation (pAkt473 immunoblot) in human platelets. Format: cell-based. As to conditions: immunoblot for pAkt473, absent in resting platelets (FIG. 7). How it is done:
FIG. 7 represents an immunoblot for pAkt473 from human platelets that were stimulated with recombinant sema4D or thrombin.
Activation of the PI 3-kinase pathway was measured using phosphorylation of Akt as a surrogate. Akt phosphorylation normally occurs in platelets activated by collagen and other agonists. Akt phosphorylation was also recently shown to occur in endothelial cells stimulated with soluble sema4D/CD100 (Basile, et al. Mol Cell Biol. […]: 6889, 2005). In endothelial cells responses to sema4D/CD100 appear to be mediated by plexin-B1. In FIG. 7, human platelets were stimulated with a His-tagged protein corresponding to the human sema4D/CD100 exodomain. Platelet lysates were prepared and immunoblotted with an antibody specific for pAkt473. Thrombin was used as a positive control.

Experiment [5] concerns sema4D/CD100. In words: Rate of sema4D/CD100 cleavage in stirred, PMA-activated platelets. The following applies: fibrinogen binding and aggregation inhibited by the peptide (not shown). Format: cell-based, human. As to the method:
Washed platelets were stimulated with 100 nM PMA in an aggregometer cuvette at 37° C. with or without stirring. Lysates were precipitated and blotted with antibody Abm30. The extent of platelet aggregation in the stirred samples is indicated below each lane.
To address the issue of whether the rate of sema4D/CD100 cleavage is different when aggregation is allowed to occur than when activation occurs in the absence of aggregation, platelets were activated with or without the stirring needed for platelet aggregates to form. PMA caused a time-dependent loss of intact sema4D/CD100 and the appearance of the C-terminal sema4D/CD100 fragment. The rate of cleavage was accelerated when aggregation was allowed to occur (FIG. 3). Even at its fastest, however, cleavage lagged behind aggregation.
Platelet aggregation study also included the use of washed platelets were stimulated with 100 nM PMA in an aggregometer cuvette at 37° C. with or without stirring. Lysates were precipitated and blotted with antibody Abm30.

Experiment [6] deals with monocytes. The following applies: cited from earlier work.
The subject of experiment [7] is sema4D/CD100. The experiment can be described thus: sema4D/CD100 surface expression on platelets by FACS. Format: cell-based, human. As to conditions: platelets stimulated with PMA for 15 min or 60 min, FACS (FIG. 4B). How it is done:
as §1
Surface expression of sema4D/CD100 was detected by FACS using an antibody that recognizes the extracellular domain. Expression increased when the platelets were activated with PMA for 15 minutes (FIG. 1C). In contrast, the α-granule membrane protein, P-selectin, was detected only on activated platelets.
as §2
(In general: In flow cytometry, cells or beads pass a laser one at a time.)

For `CNC(=O)[C@H](Cc1c[nH]c2ccccc12)NC(=O)[C@@H](CC(=O)NO)CC(C)C` [GM6001], in experiment [1], the “cleavage of sema4D/CD100” value was “inhibited”.

Take “FcCD100: fusion protein in which the entire extracellular domain of sema4D/CD100 was fused to an IgG Fc domain; disulfide-linked homodimer”: the “platelet aggregation in the presence of ADP” value in experiment [2] (low concentration of ADP (FIG. 9)) was “caused an increase in platelet aggregation”. For the same compound, the “platelet aggregation, added on its own” value in experiment [2] (no ADP (not shown)) is “no effect”. In addition, the “cleavage by recombinant ADAM17” value in experiment [3] is given as “Cleavage produced two identifiable fragments”.

Turning to thrombin, the “pAkt in platelet lysates” value in experiment [4] is reported as “readily detectable”.

In the case of RGDS, the “rate of sema4D/CD100 cleavage” value in experiment [5] is reported as “the rate of cleavage became more like that seen when the platelets were activated without stirring”.

On to “soluble sema4D/CD100: in FIG. 7 a His-tagged protein corresponding to the human sema4D/CD100 exodomain”, for which, in experiment [6], the “half-maximal effects on monocytes” value is 5 to 10 ng/mL and the “maximal effects on monocytes” value is 40 to 50 ng/mL. The “pAkt in platelet lysates” value in experiment [4] is listed as “readily detectable”.

Regarding `O=C(O)CN(CCN(CC(=O)O)CC(=O)O)CC(=O)O` [EDTA], in experiment [1], the “cleavage of sema4D/CD100” value is “inhibited”.

As for `CC(C)C[C@H](CC(=O)NO)C(=O)N[C@H](C(=O)N[C@@H](C)C(=O)NCCN)C(C)(C)C` [TAPI-2], the “loss of sema4D/CD100 surface expression” value in experiment [7] is reported as “prevented the loss of surface expression”. In experiment [1] (platelets activated by thrombin or SFLLRN (not shown)), the sema4D/CD100 cleavage entry is on record as “abolished”. Also, the “cleavage of sema4D/CD100” value in experiment [1] is “inhibited”.

The values above are taken from US20100040617A1, “Method of Using CD100 (or Sema4D) to Mediate Platelet Activation and Inflammatory Responses” (Trustees of the University of Pennsylvania, priority 2004, published 2010).
